Measured values published in paper PMC3961306, “Comparison of the Cancer Gene Targeting and Biochemical Selectivities of All Targeted Kinase Inhibitors Approved for Clinical Use” (PLoS ONE, 2014).

Experiments:
Test in all cases: Kinase profiling in a biochemical assay panel (mobility shift assays and ELISA), %-inhibition at 1 μM; selectivity entropy
[1] = biological target: T1, panel of more than 300 wild-type and mutant kinases (313 kinase panel) (Homo sapiens, UniProt Q9UQB9)
T1 sequence (Q9UQB9 1-309): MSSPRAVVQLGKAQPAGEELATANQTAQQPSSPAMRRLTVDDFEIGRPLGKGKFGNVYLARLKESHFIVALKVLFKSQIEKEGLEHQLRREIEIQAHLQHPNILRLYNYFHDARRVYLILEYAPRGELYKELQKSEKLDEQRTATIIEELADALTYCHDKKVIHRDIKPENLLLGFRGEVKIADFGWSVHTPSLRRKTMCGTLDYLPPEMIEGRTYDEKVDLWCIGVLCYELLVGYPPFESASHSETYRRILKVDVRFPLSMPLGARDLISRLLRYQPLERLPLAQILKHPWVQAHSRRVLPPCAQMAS

[2] = biological target: panel of more than 300 wild-type and mutant kinases (313 kinase panel) (Homo sapiens, UniProt P29317)
[3] = biological target: T2, panel of more than 300 wild-type and mutant kinases (313 kinase panel) (Homo sapiens, UniProt P41743); conditions: kinase PKCι; 1 μM
T2 sequence (P41743 1-596): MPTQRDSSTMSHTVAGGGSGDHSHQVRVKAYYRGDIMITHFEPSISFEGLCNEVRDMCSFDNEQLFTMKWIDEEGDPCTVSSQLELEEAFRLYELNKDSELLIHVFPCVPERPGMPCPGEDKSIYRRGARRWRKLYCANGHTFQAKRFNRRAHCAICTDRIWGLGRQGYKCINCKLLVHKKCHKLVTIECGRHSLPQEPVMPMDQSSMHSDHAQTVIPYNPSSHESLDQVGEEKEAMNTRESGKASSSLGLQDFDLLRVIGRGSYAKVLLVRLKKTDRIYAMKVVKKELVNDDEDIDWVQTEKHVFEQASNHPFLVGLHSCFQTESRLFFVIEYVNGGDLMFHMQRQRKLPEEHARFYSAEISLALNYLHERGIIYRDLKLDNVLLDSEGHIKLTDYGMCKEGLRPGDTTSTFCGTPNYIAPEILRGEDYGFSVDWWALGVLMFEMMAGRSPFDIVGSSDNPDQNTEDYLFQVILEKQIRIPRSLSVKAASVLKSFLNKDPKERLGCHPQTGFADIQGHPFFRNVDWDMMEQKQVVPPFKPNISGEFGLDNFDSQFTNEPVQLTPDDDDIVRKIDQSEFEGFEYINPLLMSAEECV

[4] = biological target: panel of more than 300 wild-type and mutant kinases (313 kinase panel) (Homo sapiens, UniProt O00311); conditions: kinase CDC7/ASK; 1 μM compound
[5] = biological target: panel of more than 300 wild-type and mutant kinases (313 kinase panel) (Homo sapiens, UniProt Q9BYP7); conditions: kinase WNK3; compound at 1 μM
Chain of panel of more than 300 wild-type and mutant kinases (313 kinase panel) (Homo sapiens, UniProt Q9BYP7) (Q9BYP7 whole entry, change not shown): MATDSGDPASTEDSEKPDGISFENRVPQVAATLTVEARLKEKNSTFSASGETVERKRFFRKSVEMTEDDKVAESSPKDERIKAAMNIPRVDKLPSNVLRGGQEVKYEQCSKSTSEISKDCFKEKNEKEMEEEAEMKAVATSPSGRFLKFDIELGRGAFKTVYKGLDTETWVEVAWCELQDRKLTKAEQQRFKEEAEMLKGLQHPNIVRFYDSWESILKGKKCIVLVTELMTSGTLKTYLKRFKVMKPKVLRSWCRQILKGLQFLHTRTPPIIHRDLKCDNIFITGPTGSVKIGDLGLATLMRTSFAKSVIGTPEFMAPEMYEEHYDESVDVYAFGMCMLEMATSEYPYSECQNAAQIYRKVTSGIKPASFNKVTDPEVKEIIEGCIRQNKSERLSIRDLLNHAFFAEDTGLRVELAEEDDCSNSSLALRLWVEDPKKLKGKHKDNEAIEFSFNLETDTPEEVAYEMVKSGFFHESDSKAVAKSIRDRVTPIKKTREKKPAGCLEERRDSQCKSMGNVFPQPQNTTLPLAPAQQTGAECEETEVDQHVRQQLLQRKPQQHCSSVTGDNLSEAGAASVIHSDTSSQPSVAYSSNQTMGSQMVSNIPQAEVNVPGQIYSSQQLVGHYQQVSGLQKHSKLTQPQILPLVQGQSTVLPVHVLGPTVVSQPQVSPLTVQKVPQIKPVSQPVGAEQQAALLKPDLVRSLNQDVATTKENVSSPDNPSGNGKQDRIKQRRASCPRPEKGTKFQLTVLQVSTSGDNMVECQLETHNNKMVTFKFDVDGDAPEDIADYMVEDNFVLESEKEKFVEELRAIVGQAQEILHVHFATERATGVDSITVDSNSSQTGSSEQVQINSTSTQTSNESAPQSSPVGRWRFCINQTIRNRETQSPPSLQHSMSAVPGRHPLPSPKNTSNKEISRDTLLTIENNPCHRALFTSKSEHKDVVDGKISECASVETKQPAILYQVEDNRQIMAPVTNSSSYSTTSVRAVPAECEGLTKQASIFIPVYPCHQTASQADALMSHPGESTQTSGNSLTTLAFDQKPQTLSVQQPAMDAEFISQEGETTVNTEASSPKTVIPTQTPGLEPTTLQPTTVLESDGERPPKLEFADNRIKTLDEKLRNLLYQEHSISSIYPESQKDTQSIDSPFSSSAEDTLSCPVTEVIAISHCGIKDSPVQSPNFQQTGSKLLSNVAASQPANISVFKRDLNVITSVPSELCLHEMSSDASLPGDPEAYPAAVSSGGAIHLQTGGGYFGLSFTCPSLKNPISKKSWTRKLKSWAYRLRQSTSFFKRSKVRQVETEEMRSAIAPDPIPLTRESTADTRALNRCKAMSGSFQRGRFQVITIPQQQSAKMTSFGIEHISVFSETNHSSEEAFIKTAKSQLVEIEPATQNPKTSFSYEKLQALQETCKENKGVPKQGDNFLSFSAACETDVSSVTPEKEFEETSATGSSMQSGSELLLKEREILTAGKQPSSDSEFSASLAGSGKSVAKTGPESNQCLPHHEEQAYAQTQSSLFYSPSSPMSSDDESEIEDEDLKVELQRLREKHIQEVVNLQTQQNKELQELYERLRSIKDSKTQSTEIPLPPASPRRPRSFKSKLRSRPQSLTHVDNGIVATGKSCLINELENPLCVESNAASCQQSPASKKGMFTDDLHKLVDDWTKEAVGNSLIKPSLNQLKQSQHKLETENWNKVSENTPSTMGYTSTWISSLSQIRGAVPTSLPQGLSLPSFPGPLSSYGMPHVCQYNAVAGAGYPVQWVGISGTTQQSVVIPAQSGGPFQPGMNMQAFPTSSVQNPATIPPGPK

[6] = biological target: T3, panel of more than 300 wild-type and mutant kinases (313 kinase panel) (Homo sapiens, UniProt P51813); conditions: kinase BMX; 1 μM compound
T3 sequence (P51813 1-675): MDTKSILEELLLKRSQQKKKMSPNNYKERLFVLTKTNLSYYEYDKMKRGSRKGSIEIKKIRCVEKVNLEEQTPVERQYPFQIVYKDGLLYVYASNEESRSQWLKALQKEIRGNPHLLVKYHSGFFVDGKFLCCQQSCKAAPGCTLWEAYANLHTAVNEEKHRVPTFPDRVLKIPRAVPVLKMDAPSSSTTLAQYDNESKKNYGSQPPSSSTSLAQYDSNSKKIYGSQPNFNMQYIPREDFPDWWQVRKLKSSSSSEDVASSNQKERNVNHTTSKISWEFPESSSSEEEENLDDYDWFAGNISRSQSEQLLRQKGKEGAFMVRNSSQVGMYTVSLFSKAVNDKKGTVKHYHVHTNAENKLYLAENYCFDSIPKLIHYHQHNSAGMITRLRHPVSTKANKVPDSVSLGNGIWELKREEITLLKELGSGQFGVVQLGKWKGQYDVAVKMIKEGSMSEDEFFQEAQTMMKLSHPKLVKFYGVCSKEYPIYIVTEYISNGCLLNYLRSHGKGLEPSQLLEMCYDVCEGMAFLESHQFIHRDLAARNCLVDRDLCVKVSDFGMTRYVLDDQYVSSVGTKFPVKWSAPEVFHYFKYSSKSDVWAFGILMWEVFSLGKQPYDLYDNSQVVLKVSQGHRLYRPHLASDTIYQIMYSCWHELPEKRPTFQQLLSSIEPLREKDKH

[7] = biological target: panel of more than 300 wild-type and mutant kinases (313 kinase panel) (Homo sapiens, UniProt P49137); conditions: kinase MAPKAPK2; compound at 1 μM
Chain of panel of more than 300 wild-type and mutant kinases (313 kinase panel) (Homo sapiens, UniProt P49137) (P49137 whole entry, change not shown): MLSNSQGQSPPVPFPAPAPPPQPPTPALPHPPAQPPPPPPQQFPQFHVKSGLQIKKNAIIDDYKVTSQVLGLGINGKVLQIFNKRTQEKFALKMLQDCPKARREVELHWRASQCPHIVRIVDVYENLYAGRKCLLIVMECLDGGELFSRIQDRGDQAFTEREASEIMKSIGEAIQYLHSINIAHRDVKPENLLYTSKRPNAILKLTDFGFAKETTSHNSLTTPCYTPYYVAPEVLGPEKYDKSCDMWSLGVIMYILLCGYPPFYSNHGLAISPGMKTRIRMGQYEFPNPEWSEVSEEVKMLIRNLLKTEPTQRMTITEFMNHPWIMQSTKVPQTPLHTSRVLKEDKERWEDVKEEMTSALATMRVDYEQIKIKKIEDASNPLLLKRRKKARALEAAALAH

[8] = biological target: panel of more than 300 wild-type and mutant kinases (313 kinase panel) (Homo sapiens, UniProt Q13153)

Compound | %-inhibition, AurC ([1]; kinase AurC, 1 μM compound) | %-inhibition of EPHA2 ([2]; kinase EPHA2, compound at 1 μM) | %-inhibition of PKCι [3] | %-inhibition, CDC7/ASK [4] | %-inhibition of WNK3 [5] | %-inhibition, BMX [6] | %-inhibition of MAPKAPK2 [7] | %-inhibition of PAK1 ([8]; kinase PAK1, 1 μM) | %-inhibition, AurC ([1]; 1 µM) | %-inhibition of PAK1 ([8]; 1 µM) | %-inhibition of EPHA2 ([2]; 1 µM)
CC(C)(C)c1nc(-c2cccc(NS(=O)(=O)c3c(F)cccc3F)c2F)c(-c2ccnc(N)n2)s1 [dabrafenib] | 23% | 7% | 14% | -6% | 1.34% | 55% | – | – | – | – | –
CCCS(=O)(=O)Nc1ccc(F)c(C(=O)c2c[nH]c3ncc(-c4ccc(Cl)cc4)cc23)c1F [vemurafenib] | 13% | 0.715% | -16% | -7% | 53% | 24% | -16% | -5% | – | – | –
Cc1nc(Nc2ncc(C(=O)Nc3c(C)cccc3Cl)s2)cc(N2CCN(CCO)CC2)n1 [dasatinib] | – | – | – | 3% | – | – | – | – | – | – | –
C[C@@H](Oc1cc(-c2cnn(C3CCNCC3)c2)cnc1N)c1c(Cl)ccc(F)c1Cl [crizotinib] | 87% | – | -5% | – | -8% | – | -17% | -4% | – | – | –
Cc1ccc(C(=O)Nc2ccc(CN3CCN(C)CC3)c(C(F)(F)F)c2)cc1C#Cc1cnc2cccnn12 [ponatinib] | 19% | 102% | 18% | -7.45% | 0.73% | – | – | – | – | – | –
O=S(=O)(c1cccc2cnccc12)N1CCCNCC1 [fasudil] | -0.164% | -7% | 14% | -7% | 0.446% | -4% | -13% | – | – | – | –
COc1cc(Nc2c(C#N)cnc3cc(OCCCN4CCN(C)CC4)c(OC)cc23)c(Cl)cc1Cl [bosutinib] | – | – | 5% | -5.36% | 13% | – | – | – | -4% | – | –
CO[C@H]1C[C@@H]2CC[C@@H](C)[C@@](O)(O2)C(=O)C(=O)N2CCCC[C@H]2C(=O)O[C@H]([C@H](C)C[C@@H]2CC[C@@H](OCCO)[C@H](OC)C2)CC(=O)[C@H](C)/C=C(\C)[C@@H](O)[C@@H](OC)C(=O)[C@H](C)C[C@H](C)/C=C/C=C/C=C/1C [everolimus] | -6.41% | -4% | 3.78% | -6% | -12% | -5.3% | -18% | -5.39% | – | – | –
Cc1ccc(Nc2nccc(N(C)c3ccc4c(C)n(C)nc4c3)n2)cc1S(N)(=O)=O [pazopanib] | 58% | 15% | 0.255% | -3.46% | 8% | 24% | -2.44% | -0.494% | – | – | –
CNC(=O)c1cc(Oc2ccc(NC(=O)Nc3ccc(Cl)c(C(F)(F)F)c3)c(F)c2)ccn1 [regorafenib] | 22% | 88% | -8% | -5.36% | -10% | -1.77% | -21% | -8% | – | – | –
CC(=O)Nc1cccc(-n2c(=O)n(C3CC3)c(=O)c3c(Nc4ccc(I)cc4F)n(C)c(=O)c(C)c32)c1 [trametinib] | 1% | -8.53% | 9% | -8% | 1% | -3.22% | -0.335% | – | – | -1.35% | –
CCN(CC)CCNC(=O)c1c(C)[nH]c(/C=C2\C(=O)Nc3ccc(F)cc32)c1C [sunitinib] | 82% | – | – | – | – | – | – | – | – | – | –
CO[C@H]1C[C@@H]2CC[C@@H](C)[C@@](O)(O2)C(=O)C(=O)N2CCCC[C@H]2C(=O)O[C@H]([C@H](C)C[C@@H]2CC[C@@H](OC(=O)C(C)(CO)CO)[C@H](OC)C2)CC(=O)[C@H](C)/C=C(\C)[C@@H](O)[C@@H](OC)C(=O)[C@H](C)C[C@H](C)/C=C/C=C/C=C/1C [temsirolimus] | 0.194% | -5.58% | 13% | -6% | -13% | -7% | -17% | -3.8% | – | – | –
CS(=O)(=O)CCNCc1ccc(-c2ccc3ncnc(Nc4ccc(OCc5cccc(F)c5)c(Cl)c4)c3c2)o1 [lapatinib] | – | 1.22% | -0.659% | 3% | – | 9% | – | – | 3.4% | – | –
COc1cc2c(Nc3ccc(Br)cc3F)ncnc2cc1OCC1CCN(C)CC1 [vandetanib] | – | 86% | 6% | -6.41% | -7% | 18% | -20% | -5.28% | – | – | –
COc1cc2nccc(Oc3ccc(NC(=O)C4(C(=O)Nc5ccc(F)cc5)CC4)cc3)c2cc1OC [cabozantinib] | 86% | 98% | 15% | -3.4% | 20% | 53% | -17% | -2.55% | – | – | –
N#CC[C@H](C1CCCC1)n1cc(-c2ncnc3[nH]ccc23)cn1 [ruxolitinib] | – | 28% | 1.52% | 5.36% | -8% | 6.6% | -18% | -5.62% | – | – | –
Cc1cn(-c2cc(NC(=O)c3ccc(C)c(Nc4nccc(-c5cccnc5)n4)c3)cc(C(F)(F)F)c2)cn1 [nilotinib] | 5% | – | -8% | -7% | -7% | – | 2.56% | -159% | – | – | 95%
